According to ChEMBL document CHEMBL1133998, “Studies directed towards the refinement of the pancratistatin cytotoxic pharmacophore” (2001):
Converted amounts (≈) assume the structure as drawn.

Tests used:
Type in all cases: functional
[1] = tested on: P388; test: Effective dose against the p-388 mouse leukemia cell line; details: read-out: ED50 (the source's name)
[2] = tested on: NCI-H226; test: Effective dose for inhibition of proliferation of the lung cancer cell line NCI-H226; details: Homo sapiens, read-out: ED50 (the source's name)
[3] = tested on: CCRF-CEM; test: Effective dose for inhibition of proliferation of the leukemia cell line CCRF-CEM; details: Homo sapiens, read-out: ED50 (the source's name)
[4] = tested on: HL-60; test: Effective dose for inhibition of proliferation of the leukemia cell line HL-60(TB); details: Homo sapiens, read-out: ED50 (the source's name)

SMILES	EC50 [1] [µg/mL]	EC50 [2] [µg/mL]	EC50 [3] [µg/mL]	EC50 [4] [µg/mL]
O=C1N[C@H]2[C@H](O)CCC[C@@H]2c2cc3c(cc21)OCO3	40.1 (≈ 153 µM)	–	–	–
O=C1N[C@H]2C[C@H](O)[C@@H](O)C[C@@H]2c2cc3c(cc21)OCO3	0.45 (≈ 1.62 µM)	0.65 (≈ 2.34 µM)	0.55 (≈ 1.98 µM)	0.89 (≈ 3.21 µM)
